In patent US11046680B1, “Heteroaryl-substituted triazoles as APJ receptor agonists” (priority 2016, dated 2021):
pEC50: −log10 of the molar value.

target: human APJ receptor (Homo sapiens (Human), UniProt P35414); test: biochemical; assay type: biochemical; conditions: [35S]GTPγS binding, CHO membranes expressing human APJ receptor; read-out: Activity hAPJ SPA EC50 IP
Protocol: The human APJ receptor was cloned by polymerase chain reaction and the gene encoding the receptor was subcloned in pFLAG-CMV™-3 expression vector (Sigma, Saint Louis, Mo. USA) in-house at Amgen. A GTPγS binding assay was performed on membranes prepared from CHO cells stably expressing human APJ receptor. The optimum experimental conditions for the concentrations of GDP, MgCl2, and NaCl in the assay buffer were initially determined. […] Incubation was at RT for 90 min and the microplate was read using a ViewLux™ ultra HTS Microplate Imager (PerkinElmer, Inc.).

Chain of human APJ receptor (P35414 whole entry): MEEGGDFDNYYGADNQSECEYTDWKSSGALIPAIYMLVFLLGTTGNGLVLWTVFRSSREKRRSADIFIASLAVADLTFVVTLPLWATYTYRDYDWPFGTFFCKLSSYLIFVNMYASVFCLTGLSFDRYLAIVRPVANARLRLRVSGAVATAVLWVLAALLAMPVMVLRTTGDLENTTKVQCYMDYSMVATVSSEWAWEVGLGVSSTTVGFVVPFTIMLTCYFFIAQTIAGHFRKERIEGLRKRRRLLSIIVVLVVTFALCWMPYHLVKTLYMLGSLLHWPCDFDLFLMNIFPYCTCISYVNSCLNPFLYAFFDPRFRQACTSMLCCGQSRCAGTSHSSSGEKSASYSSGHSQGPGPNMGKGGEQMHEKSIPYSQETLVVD

Question: How did the pEC50 turn out when COc1cccc(OC)c1-n1c(NS(=O)(=O)[C@@H](C)[C@H](OC)c2ncc(Cl)cn2)nnc1-c1n[nH]c2ccccc12 [Example 421.0, (1R,2S)-1-(5-chloropyrimidin-2-yl)-N-(4-(2,6-dimethoxyphenyl)-5-(1H-indazol-3-yl)-4H-1,2,4-triazol-3-yl)-1-methoxypropane-2-sulfonamide] was run?
Answer: 8.35

Question: COCC(COC)n1c(NS(=O)(=O)[C@@H](C)[C@H](C)c2cnc(OC)cn2)nnc1-c1ccn(C)n1 [Example 453.0, (2S,3R)-N-(4-(1,3-dimethoxy-2-propanyl)-5-(1-methyl-1H-pyrazol-3-yl)-4H-1,2,4-triazol-3-yl)-3-(5-methoxy-2-pyrazinyl)-2-butanesulfonamide] was tested. Which pEC50 did it give?
Answer: 7.14

Question: COc1cnc([C@@H](OC)[C@H](C)S(=O)(=O)Nc2nnc(-c3ccn(C)n3)n2-c2c(OC)ncnc2OC)cn1 [Example 460.0, (1R,2S)-N-(4-(4,6-dimethoxy-5-pyrimidinyl)-5-(1-methyl-1H-pyrazol-3-yl)-4H-1,2,4-triazol-3-yl)-1-methoxy-1-(5-methoxy-2-pyrazinyl)-2-propanesulfonamide] was tested. Which pEC50 did it give?
Answer: 8.59

Question: With CO[C@H](c1ncc(Cl)cn1)[C@H](C)S(=O)(=O)Nc1nnc(-c2noc3ccccc23)n1C(C)C [Example 511.0, (1R,2S)-N-(5-(benzo[d]isoxazol-3-yl)-4-isopropyl-4H-1,2,4-triazol-3-yl)-1-(5-chloropyrimidin-2-yl)-1-methoxypropane-2-sulfonamide] as the compound, how does the pEC50 read?
Answer: 6.70

Question: With COc1cccc(OC)c1-n1c(NS(=O)(=O)[C@H](C)Cc2ncc(F)cn2)nnc1-c1cnccn1 (single isomer, unassigned) [Example 29.0, (R)-N-(4-(2,6-dimethoxyphenyl)-5-(pyrazin-2-yl)-4H-1,2,4-triazol-3-yl)-1-(5-fluoropyrimidin-2-yl)propane-2-sulfonamide or (S)-N-(4-(2,6-dimethoxyphenyl)-5-(pyrazin-2-yl)-4H-1,2,4-triazol-3-yl)-1-(5-fluoropyrimidin-2-yl)propane-2-sulfonamide] as the compound, how does the pEC50 read?
Answer: 7.33

Question: With COc1cccc(OC)c1-n1c(NS(=O)(=O)[C@@H](C)[C@H](C)c2ncc(C)cn2)nnc1-c1ccn(C(F)F)n1 [Example 198.0, (2S,3R)-N-(5-(1-(difluoromethyl)-1H-pyrazol-3-yl)-4-(2,6-dimethoxyphenyl)-4H-1,2,4-triazol-3-yl)-3-(5-methyl-2-pyrimidinyl)-2-butanesulfonamide] as the compound, how does the pEC50 read?
Answer: 9.70

Question: With COc1cccc(OC)c1-n1c(NS(=O)(=O)[C@@H](C)Cc2ncc(C)cn2)nnc1-c1nc(C)cs1 (single isomer, unassigned) [Example 8.0, (2S)-N-(4-(2,6-dimethoxyphenyl)-5-(4-methyl-1,3-thiazol-2-yl)-4H-1,2,4-triazol-3-yl)-1-(5-methyl-2-pyrimidinyl)-2-propanesulfonamide or (2R)-N-(4-(2,6-dimethoxyphenyl)-5-(4-methyl-1,3-thiazol-2-yl)-4H-1,2,4-triazol-3-yl)-1-(5-methyl-2-pyrimidinyl)-2-propanesulfonamide] as the compound, how does the pEC50 read?
Answer: 9.12

Question: COc1cnc([C@@H](C)[C@H](C)S(=O)(=O)Nc2nnc(-c3cnn4c3CCC4)n2-c2c(OC)cccc2OC)nc1 [Example 485.0, (2S,3R)-N-(5-(5,6-dihydro-4H-pyrrolo[1,2-b]pyrazol-3-yl)-4-(2,6-dimethoxyphenyl)-4H-1,2,4-triazol-3-yl)-3-(5-methoxypyrimidin-2-yl)butane-2-sulfonamide] was tested. Which pEC50 did it give?
Answer: 9.52

Question: How did the pEC50 turn out when COc1ncnc(OC)c1-n1c(NS(=O)(=O)[C@@H](C)[C@H](C)c2ncc(Cl)cn2)nnc1-c1n[nH]c2ccccc12 [Example 426.0, (2S,3R)-3-(5-chloropyrimidin-2-yl)-N-(4-(4,6-dimethoxypyrimidin-5-yl)-5-(1H-indazol-3-yl)-4H-1,2,4-triazol-3-yl)butane-2-sulfonamide] was run?
Answer: 7.85

Question: COc1cccc(OC)c1-n1c(NS(=O)(=O)C[C@H](O)c2ccc(F)cc2S(C)(=O)=O)nnc1-c1ccn(C)n1 (single isomer, unassigned) [Example 370.0, (R)-N-(4-(2,6-Dimethoxyphenyl)-5-(1-methyl-1H-pyrazol-3-yl)-4H-1,2,4-triazol-3-yl)-2-(4-fluoro-2-(methylsulfonyl)phenyl)-2-hydroxyethanesulfonamide or (S)-N-(4-(2,6-dimethoxyphenyl)-5-(1-methyl-1H-pyrazol-3-yl)-4H-1,2,4-triazol-3-yl)-2-(4-fluoro-2-(methylsulfonyl)phenyl)-2-hydroxyethanesulfonamide] was tested. Which pEC50 did it give?
Answer: 8.51

Question: With COc1cccc(OC)c1-n1c(NS(=O)(=O)[C@@H](C)[C@H](OC)c2cnc(C)cn2)nnc1-c1cc(C)[nH]n1 [Example 348.0, (1R,2S)-N-(4-(2,6-dimethoxyphenyl)-5-(5-methyl-1H-pyrazol-3-yl)-4H-1,2,4-triazol-3-yl)-1-methoxy-1-(5-methyl-2-pyrazinyl)-2-propanesulfonamide] as the compound, how does the pEC50 read?
Answer: 8.37

Question: How did the pEC50 turn out when COc1ccccc1-n1c(NS(=O)(=O)Cc2ccc(Cl)cc2)nnc1-c1ccc(F)s1 [Example 235.0, 1-(4-chlorophenyl)-N-(5-(5-fluoro-2-thiophenyl)-4-(2-methoxyphenyl)-4H-1,2,4-triazol-3-yl)methanesulfonamide] was run?
Answer: < 4.90

Question: With COc1cccc(OC)c1-n1c(NS(=O)(=O)[C@@H]2CCCN(c3ncc(F)cn3)C2)nnc1-c1ccn(C)n1 (single isomer, unassigned) [Example 262.0, (3R)-N-(4-(2,6-dimethoxyphenyl)-5-(1-methyl-1H-pyrazol-3-yl)-4H-1,2,4-triazol-3-yl)-1-(5-fluoro-2-pyrimidinyl)-3-piperidinesulfonamide or (3S)-N-(4-(2,6-dimethoxyphenyl)-5-(1-methyl-1H-pyrazol-3-yl)-4H-1,2,4-triazol-3-yl)-1-(5-fluoro-2-pyrimidinyl)-3-piperidinesulfonamide] as the compound, how does the pEC50 read?
Answer: 8.32

Question: How did the pEC50 turn out when COc1nc[nH]c(=O)c1-n1c(NS(=O)(=O)[C@@H](C)Cc2ncc(F)cn2)nnc1-c1ccn(C)n1 (racemic) [Example 7.0, (2R)-1-(5-fluoro-2-pyrimidinyl)-N-(4-(4-methoxy-6-oxo-1,6-dihydro-5-pyrimidinyl)-5-(1-methyl-1H-pyrazol-3-yl)-4H-1,2,4-triazol-3-yl)-2-propanesulfonamide and (2S)-1-(5-fluoro-2-pyrimidinyl)-N-(4-(4-methoxy-6-oxo-1,6-dihydro-5-pyrimidinyl)-5-(1-methyl-1H-pyrazol-3-yl)-4H-1,2,4-triazol-3-yl)-2-propanesulfonamide] was run?
Answer: 7.29

Question: How did the pEC50 turn out when COc1cccc(OC)c1-n1c(NS(=O)(=O)[C@@H](C)[C@H](OC)c2ncc(C)cn2)nnc1-c1nc(C2CC2)cs1 [Example 340.0, (1R,2S)-N-(5-(4-cyclopropyl-1,3-thiazol-2-yl)-4-(2,6-dimethoxyphenyl)-4H-1,2,4-triazol-3-yl)-1-methoxy-1-(5-methyl-2-pyrimidinyl)-2-propanesulfonamide] was run?
Answer: 9.59

Question: How did the pEC50 turn out when “(1R,2S)-N-(4-(2,6-dimethoxyphenyl)-5-(1-methyl-1H-pyrazol-3-yl)-4H-1,2,4-triazol-3-yl)-1-(5-fluoro-2-pyridinyl)-1-hydroxy-2-propanesulfonamide and (1S,2R)-N-(4-(2,6-dimethoxyphenyl)-5-(1-methyl-1H-pyrazol-3-yl)-4H-1,2,4-triazol-3-yl)-1-(5-fluoro-2-pyridinyl)-1-hydroxy-2-propanesulfonamide [Example 24.0]” was run?
Answer: 9.74
